Reference: PMC8844822, “SARM1 is a multi-functional NAD(P)ase with prominent base exchange activity, all regulated bymultiple physiologically relevant NAD metabolites” (iScience, 2022)

Tests used:
hSARM1 full length = target: T1, hSARM1 full length (Homo sapiens, UniProt Q6SZW1); assay: Base exchange reactions at neutral pH (HPLC); format: biochemical
T1 construct: Human recombinant SARM1 full length proteins (wild-type and E642A mutant); made in house
T1 sequence (Q6SZW1 28-724): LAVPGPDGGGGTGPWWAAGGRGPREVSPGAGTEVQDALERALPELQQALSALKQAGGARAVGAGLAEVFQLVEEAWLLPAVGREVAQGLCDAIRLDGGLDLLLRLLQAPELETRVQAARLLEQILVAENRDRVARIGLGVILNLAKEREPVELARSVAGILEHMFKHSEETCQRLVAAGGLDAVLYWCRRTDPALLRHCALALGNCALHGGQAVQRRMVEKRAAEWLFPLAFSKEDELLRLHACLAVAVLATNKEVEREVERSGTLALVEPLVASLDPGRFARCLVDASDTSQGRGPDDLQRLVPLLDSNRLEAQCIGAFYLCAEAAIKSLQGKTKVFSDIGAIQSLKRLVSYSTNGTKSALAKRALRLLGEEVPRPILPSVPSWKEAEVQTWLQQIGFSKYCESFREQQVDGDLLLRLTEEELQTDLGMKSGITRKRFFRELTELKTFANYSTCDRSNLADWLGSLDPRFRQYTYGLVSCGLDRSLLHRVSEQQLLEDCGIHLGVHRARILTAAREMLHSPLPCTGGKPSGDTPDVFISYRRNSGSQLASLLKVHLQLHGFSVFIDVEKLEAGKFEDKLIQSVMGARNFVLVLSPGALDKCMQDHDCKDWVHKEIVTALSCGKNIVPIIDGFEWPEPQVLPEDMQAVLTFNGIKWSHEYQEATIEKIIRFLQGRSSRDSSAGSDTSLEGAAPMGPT

hCD38 = target: T2, hCD38 (Homo sapiens, UniProt P28907); assay: Base exchange reactions at neutral pH (HPLC); format: biochemical
T2 construct: a soluble fragment Val43-Ile300 with 6x-His tag at C terminus; 6xHis (C); purchased R&D Systems
T2 sequence (P28907 43-300): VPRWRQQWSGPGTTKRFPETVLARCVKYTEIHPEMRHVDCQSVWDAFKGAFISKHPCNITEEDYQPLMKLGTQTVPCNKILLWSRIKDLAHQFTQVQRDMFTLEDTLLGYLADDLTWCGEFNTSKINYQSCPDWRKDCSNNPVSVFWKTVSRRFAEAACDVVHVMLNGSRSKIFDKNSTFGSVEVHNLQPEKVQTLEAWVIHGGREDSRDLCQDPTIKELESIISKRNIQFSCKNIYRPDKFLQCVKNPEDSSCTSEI

[1] = hSARM1 full length +NMN 0.2 mM, NAD […]
[2] = hSARM1 full length +NMN 0.2 mM, NAD […] alone or + free base
[3] = hSARM1 full length +NMN 0.2 mM, NAD […], relative to NAD alone without trigger
[4] = hSARM1 full length +NMN 0.2 mM, NADP […]
[5] = hSARM1 full length +NMN 0.2 mM, NADP […] alone or + free base
[6] = hSARM1 full length +NMN 0.2 mM, NADP […], relative to NADP alone without trigger
[7] = hSARM1 full length +VMN 0.05 mM, NAD […]
[8] = hSARM1 full length +VMN 0.05 mM, NAD […] alone or + free base
[9] = hSARM1 full length +VMN 0.05 mM, NAD […], relative to NAD alone without trigger
[10] = hSARM1 full length +VMN 0.05 mM, NADP […]
[11] = hSARM1 full length +VMN 0.05 mM, NADP […] alone or + free base
[12] = hSARM1 full length +VMN 0.05 mM, NADP […], relative to NADP alone without trigger
[13] = hSARM1 full length, no trigger, NAD […] alone or + AcPyr 2 mM / Vacor 0.5 mM / Na 2 mM, pH 7.5
[14] = hSARM1 full length, no trigger, NADP […] alone or + AcPyr 2 mM / Vacor 0.5 mM / Na 2 mM, pH 7.5
[15] = NAD […] alone or + AcPyr 2 mM / Vacor 0.5 mM / Na 2 mM
[16] = NADP […] alone or + AcPyr 2 mM / Vacor 0.5 mM / Na 2 mM

Compound	base exchange, share of products (hSARM1 full length; [1]) [%]	cyclization, share of products (hSARM1 full length; [1]) [%]	hydrolysis, share of products (hSARM1 full length; [1]) [%]	rate (hSARM1 full length; [2]) [mU/mg]	rate (relative fold) (hSARM1 full length; [3]) [fold]	base exchange, share of products (hSARM1 full length; [4]) [%]	hydrolysis, share of products (hSARM1 full length; [4]) [%]	rate (hSARM1 full length; [5]) [mU/mg]	rate (relative fold) (hSARM1 full length; [6]) [fold]	base exchange, share of products (hSARM1 full length; [7]) [%]	cyclization, share of products (hSARM1 full length; [7]) [%]	hydrolysis, share of products (hSARM1 full length; [7]) [%]	rate (hSARM1 full length; [8]) [mU/mg]	rate (relative fold) (hSARM1 full length; [9]) [fold]	base exchange, share of products (hSARM1 full length; [10]) [%]	hydrolysis, share of products (hSARM1 full length; [10]) [%]	rate (hSARM1 full length; [11]) [mU/mg]	rate (relative fold) (hSARM1 full length; [12]) [fold]	rate (hSARM1 full length; [13]) [mU/mg]	rate (hSARM1 full length; [14]) [mU/mg]	further results
CC(=O)c1cccnc1 [AcPyr, 3-acetylpyridine]	92.73	0.80	6.47	218.5 ±37.4	10.02 ±1.71	93.20	6.80	131.1 ±17.0	8.92 ±1.16	93.61	0.68	5.72	228.9 ±18.9	10.49 ±0.867	94.18	5.82	140.7 ±13.3	9.57 ±0.907	42.6 ±3.34	26.6 ±1.71	rate (hCD38; [15]): 8284 ±992 mU/mg; rate (hCD38; [16]): 3255 ±787 mU/mg
O=C(NCc1cccnc1)Nc1ccc([N+](=O)[O-])cc1 [Vacor, 1-(4-nitrophenyl)-3-(pyridin-3-ylmethyl)urea]	20.86	7.06	72.08	180.1 ±8.72	8.26 ±0.400	23.61	76.34	134.7 ±5.67	9.16 ±0.386	44.98	4.75	50.27	206.2 ±1.12	9.45 ±0.051	35.56	63.94	148.5 ±4.61	10.11 ±0.314	29.5 ±2.55	22.9 ±1.68	cyclization, share of products (hSARM1 full length; [4]): ~ 0.05%; cyclization, share of products (hSARM1 full length; [10]): 0.50%; base exchange products VAD(P) or NaAD(P), share of total products (hSARM1 full length; hSARM1 full length, NAD or NADP 250 μM, vacor 0.5 mM, Na 2 mM): 20%–30%; rate (hCD38; [15]): 6818 ±1376 mU/mg; rate (hCD38; [16]): 3496 ±593 mU/mg
